Values after ≈ are worked out from the molar mass of the structure shown. Like-named read-outs stand apart in the source and are kept apart here.
How the values were obtained:
S. aureus 209-P JC = assay: MIC by agar plate dilution method, S. aureus 209-P JC; format: cell-based; details: Staphylococcus aureus, S. aureus 209-P JC, inoculum 10^6, 37° C., 18 hours, read-out: minimum inhibitory concentration (MIC)
Description: (§1) Test method: The MIC was measured by an agar plate dilution method in accordance with a standard method of Japan Chemotherapeutic Society (cf. Nippon Kagaku Ryoho Gakkaishi, 29(1), 76-79, 1981). Thus, the organisms incubated at 37° C. for 18 hours using sensitivity test broth (Nissei) was diluted to 10^6 CFU/ml using the same broth. […] As a control, enoxacin and ofloxacin were used in Tests 1 and 2, respectively.
(§2) The numbers of the inoculated bacteria were 10^6 in all cases and the unit of the MIC was micrograms/ml.

M. luteus ATCC 9341 = assay: MIC by agar plate dilution method, M. luteus ATCC 9341; format: cell-based; details: Micrococcus luteus, ATCC9341, inoculum 10^6, 37° C., 18 hours, read-out: minimum inhibitory concentration (MIC)
Description: as §1, §2

B. subtilis ATCC 6633 = assay: MIC by agar plate dilution method, B. subtilis ATCC 6633; format: cell-based; details: Bacillus subtilis, ATCC6633, B. subtilis ATCC 6633, inoculum 10^6, 37° C., 18 hours, read-out: minimum inhibitory concentration (MIC)
Description: as §1, §2

E. coli NIHJ JC-2 = assay: MIC by agar plate dilution method, E. coli NIHJ JC-2; format: cell-based; details: Escherichia coli, NIHJJC2, E. coli NIHJ JC-2, inoculum 10^6, 37° C., 18 hours, read-out: minimum inhibitory concentration (MIC)
Description: as §1, §2

K. pneumoniae K-1966 = assay: MIC by agar plate dilution method, K. pneumoniae K-1966; format: cell-based; details: Klebsiella pneumoniae, K1966, K. pneumoniae K-1966, inoculum 10^6, 37° C., 18 hours, read-out: minimum inhibitory concentration (MIC)
Description: as §1, §2

S. marcescens IFO 3736 = assay: MIC by agar plate dilution method, S. marcescens IFO 3736; format: cell-based; details: Serratia marcescens, IFO3736, inoculum 10^6, 37° C., 18 hours, read-out: minimum inhibitory concentration (MIC)
Description: as §1, §2

S. flexneri = assay: MIC by agar plate dilution method, S. flexneri; format: cell-based; details: Shigella flexneri, 18 hours, read-out: minimum inhibitory concentration (MIC)
Description: as §1, §2

P. aeruginosa E-2 [1] = assay: MIC by agar plate dilution method, P. aeruginosa E-2; format: cell-based; details: Pseudomonas aeruginosa, E2, P. aeruginosa E-2, inoculum 10^6, 37° C., 18 hours, read-out: minimum inhibitory concentration (MIC)
Description: as §1, §2

S. epidermidis = assay: MIC by agar plate dilution method, S. epidermidis; format: cell-based; details: Staphylococcus epidermidis, Test 2, inoculum 10^6, 37° C., 18 hours, read-out: minimum inhibitory concentration (MIC)
Description: as §1, §2

Proteus mirabilis 181 = assay: MIC by agar plate dilution method, Proteus mirabilis 181; format: cell-based; details: Test 2; Proteus mirabilis 181; inoculum 10^6; 37° C., 18 hours; read-out: minimum inhibitory concentration (MIC)
Description: as §1, §2

E. coli KC-14 [2] = assay: Therapeutic effect on infection in mice, E. coli KC-14; format: in vivo, ddY-strain male mice; details: Escherichia coli, KC14, po, 168 h
Description: (§3) Test Method: Escherichia coli KC-14 and Psudomonas aeruginosa E-2 were suspended in 4% mucin and 0.25 ml of it was inoculated into peritoneal cavity of ddY-strain male mice (body weight about 20 g; 4 weeks age; 10 mice per group). The numbers of the inoculated bacteria were 5.1×10^4 CFU/mouse and 7.5×10^4 CFU/mouse for E. coli and P. aeruginosa, respectively. The drug was administered orally once 2 hours after the infection of the bacteria and, out of the survival rate after one week, the ED50 values were calculated by a Behrens-Karber method. As controls, ofloxacin and enoxacin were used.
(§4) Bacteria used for calculating ED50 were E. coli KC-14 for (1) and P. aeruginosa E-2 for (2). The compounds (1) to (7) of the present invention designated in Table 2 are as follows.

P. aeruginosa E-2 [3] = assay: Therapeutic effect on infection in mice, P. aeruginosa E-2; format: in vivo, ddY-strain male mice; details: Pseudomonas aeruginosa, E2, po, 168 h
Description: as §3, §4

[4] = tested on: infections caused by Gram positive bacteria and Pseudomonas aeruginosa (chronic); details: background statement; cited from earlier work
S. aureus Smith = assay: MIC by agar plate dilution method, S. aureus Smith; format: cell-based; details: Staphylococcus aureus; Test 1; S. aureus Smith; inoculum 10^6; 37° C., 18 hours; read-out: minimum inhibitory concentration (MIC)
Description: as §1, §2

E. coli KC-14 [5] = assay: MIC by agar plate dilution method, E. coli KC-14; format: cell-based; details: Escherichia coli, KC14; Test 1; E. coli KC-14; inoculum 10^6; 37° C., 18 hours; read-out: minimum inhibitory concentration (MIC)
Description: as §1, §2

E. cloacae No. 1 = assay: MIC by agar plate dilution method, E. cloacae No. 1; format: cell-based; details: Enterobacter cloacae; Test 1; E. cloacae No. 1; inoculum 10^6; 37° C., 18 hours; read-out: minimum inhibitory concentration (MIC)
Description: as §1, §2

P. vulgaris HX-19 = assay: MIC by agar plate dilution method, P. vulgaris HX-19; format: cell-based; details: Proteus vulgaris, HX19, Test 1, inoculum 10^6, 37° C., 18 hours, read-out: minimum inhibitory concentration (MIC)
Description: as §1, §2

A. calcoaceticus 54 = assay: MIC by agar plate dilution method, A. calcoaceticus 54; format: cell-based; details: Acinetobacter calcoaceticus; Test 1; A. calcoaceticus 54; inoculum 10^6; 37° C., 18 hours; read-out: minimum inhibitory concentration (MIC)
Description: as §1, §2

in vivo = details: mouse, oral administration, ddY-strain male mice, 2 weeks
Description: The result of oral administration to ddY-strain male mice (7 weeks age; body weight ca. 35 g; 3 mice per group) for 2 weeks was given.

[6] = E. coli KC-14, 5.1×10^4 CFU/mouse i.p., drug orally once 2 hours after infection, survival after one week, read-out: ED50
[7] = P. aeruginosa E-2, 7.5×10^4 CFU/mouse i.p., drug orally once 2 hours after infection, survival after one week, read-out: ED50

SMILES: CC1COc2c(N3CCN(C)CC3)c(F)cc3c(=O)c(C(=O)O)cn1c23 (racemic) [Ofloxacin, ofloxacin, reference compound]
- MIC (S. aureus 209-P JC; Test 2): 0.78 µg/mL (≈ 2.16 µM)
- MIC (M. luteus ATCC 9341; Test 2, M. luteus ATTC 9341): 3.13 µg/mL (≈ 8.66 µM)
- MIC (B. subtilis ATCC 6633; Test 2): 0.2 µg/mL (≈ 0.553 µM)
- MIC (E. coli NIHJ JC-2; Test 2): 0.05 µg/mL (≈ 0.138 µM)
- MIC (K. pneumoniae K-1966; Test 2): 0.1 µg/mL (≈ 0.277 µM)
- MIC (S. marcescens IFO 3736; Test 2, S. Marcescens IFO 3736): 0.39 µg/mL (≈ 1.08 µM)
- MIC (S. flexneri; Test 2, inoculum 10^6, 37° C.): 0.1 µg/mL (≈ 0.277 µM)
- MIC (P. aeruginosa E-2 [1]; Test 2): 1.56 µg/mL (≈ 4.32 µM)
- MIC (S. epidermidis): 1.56 µg/mL (≈ 4.32 µM)
- MIC (Proteus mirabilis 181): 0.1 µg/mL (≈ 0.277 µM)
- ED50 (E. coli KC-14 [2]; [6]): 0.8 mg/kg
- ED50 (P. aeruginosa E-2 [3]; [7]): 16 mg/kg
- activity against infections caused by Gram positive bacteria and Pseudomonas aeruginosa (chronic) [4]: not active

SMILES: CCn1cc(C(=O)O)c(=O)c2cc(F)c(N3CCNCC3)nc21 [Enoxacin, enoxacin, reference compound]
- MIC (S. aureus 209-P JC; Test 1): 0.78 µg/mL (≈ 2.44 µM)
- MIC (S. aureus Smith): 0.78 µg/mL (≈ 2.44 µM)
- MIC (M. luteus ATCC 9341; Test 1, M. luteus ATCC 9341): 25 µg/mL (≈ 78 µM)
- MIC (B. subtilis ATCC 6633; Test 1): 0.2 µg/mL (≈ 0.624 µM)
- MIC (E. coli NIHJ JC-2; Test 1): 0.2 µg/mL (≈ 0.624 µM)
- MIC (E. coli KC-14 [5]): 0.1 µg/mL (≈ 0.312 µM)
- MIC (K. pneumoniae K-1966; Test 1): 0.2 µg/mL (≈ 0.624 µM)
- MIC (E. cloacae No. 1): 0.1 µg/mL (≈ 0.312 µM)
- MIC (S. marcescens IFO 3736; Test 1, S. marcescens IFO 3736): 0.39 µg/mL (≈ 1.22 µM)
- MIC (P. vulgaris HX-19): 0.05 µg/mL (≈ 0.156 µM)
- MIC (S. flexneri; Test 1, inoculum 10^6, 37° C.): 0.1 µg/mL (≈ 0.312 µM)
- MIC (P. aeruginosa E-2 [1]; Test 1): 0.78 µg/mL (≈ 2.44 µM)
- MIC (A. calcoaceticus 54): 1.56 µg/mL (≈ 4.87 µM)
- ED50 (E. coli KC-14 [2]; [6]): 1.8 mg/kg
- ED50 (P. aeruginosa E-2 [3]; [7]): 13.1 mg/kg
- activity against infections caused by Gram positive bacteria and Pseudomonas aeruginosa (chronic) [4]: not active

SMILES: CC1Sc2c(C(=O)O)c(=O)c3cc(F)c(N4CCN(C)CC4)cc3n21.O=S(=O)(O)O (stereo not drawn) [Table 1 (5), 6-Fluoro-1-methyl-7-(4-methyl-1-piperazinyl)-4-oxo-4H-(1,3)thiazeto(3,2-a)quinoline-3-carboxylic acid sulfate]
- ED50 (E. coli KC-14 [2]): 0.5 mg/kg
- ED50 (P. aeruginosa E-2 [3]): 4 mg/kg

SMILES: CCOC(=O)c1c2n(c3cc(N4CCN(C)C(C)C4)c(F)cc3c1=O)C(C)S2 (stereo not drawn) [Table 2 (3), Ethyl 7-(3,4-dimethyl-1-piperazinyl)-6-fluoro-1-methyl-4-oxo-4H-(1,3)thiazeto(3,2-a)quinoline-3-carboxylate]
- LD50 at 336 h (in vivo): ≥ 3000 mg/kg

SMILES: CC1Sc2c(C(=O)O)c(=O)c3cc(F)c(N4CCN(C)CC4)cc3n21 (stereo not drawn) [Table 1 (2), 6-Fluoro-1-methyl-7-(4-methyl-1-piperazinyl)-4-oxo-4H-(1,3)thiazeto(3,2-a)quinoline-3-carboxylic acid]
- LD50 at 336 h (in vivo): ≥ 3000 mg/kg

SMILES: CC(=O)CN1CCN(c2cc3c(cc2F)c(=O)c(C(=O)O)c2n3C(C)S2)CC1 (stereo not drawn) [Table 2 (6), 7-(4-Acetonyl-1-piperazinyl)-6-fluoro-1-methyl-4-oxo-4H-(1,3)thiazeto(3,2-a)quinoline-3-carboxylic acid]
- ED50 (E. coli KC-14 [2]; [6]): 0.6 mg/kg
- ED50 (P. aeruginosa E-2 [3]; [7]): 5 mg/kg

SMILES: CCOC(=O)c1c2n(c3cc(N4CCN(CC(C)=O)CC4)c(F)cc3c1=O)C(C)S2 (stereo not drawn) [Table 2 (5), Ethyl 7-(4-acetonyl-1-piperazinyl)-6-fluoro-1-methyl-4-oxo-4H-(1,3)thiazeto(3,2-a)quinoline-3-carboxylate]
- LD50 at 336 h (in vivo): ≥ 3000 mg/kg

— patent US4843070A, “Substituted thiazetoquinoline-3-carboxylic acids and pharmaceutically acceptable salts thereof” (priority 1986, dated 1989)
